# Experimental data reported in patent US11084818B2 (HEPO PHARMACEUTICAL CO., LTD., priority 2016, dated 2021).
# Key:
# [1] = target: T1, hTLR8 (Homo sapiens, UniProt Q9NR97); test: Activation activity test of hTLR8 (HEK-Blue hTLR8 cells, QUANTI-Blue OD650); type: cell-based; details: for EC50: HEK-Blue hTLR8 cells, 24 hours incubation, read-out: TLR8 (EC50)
# T1 construct: host or cells: HEK-Blue hTLR8 (HEK293-derived reporter line)
# T1 sequence (Q9NR97 27-1041): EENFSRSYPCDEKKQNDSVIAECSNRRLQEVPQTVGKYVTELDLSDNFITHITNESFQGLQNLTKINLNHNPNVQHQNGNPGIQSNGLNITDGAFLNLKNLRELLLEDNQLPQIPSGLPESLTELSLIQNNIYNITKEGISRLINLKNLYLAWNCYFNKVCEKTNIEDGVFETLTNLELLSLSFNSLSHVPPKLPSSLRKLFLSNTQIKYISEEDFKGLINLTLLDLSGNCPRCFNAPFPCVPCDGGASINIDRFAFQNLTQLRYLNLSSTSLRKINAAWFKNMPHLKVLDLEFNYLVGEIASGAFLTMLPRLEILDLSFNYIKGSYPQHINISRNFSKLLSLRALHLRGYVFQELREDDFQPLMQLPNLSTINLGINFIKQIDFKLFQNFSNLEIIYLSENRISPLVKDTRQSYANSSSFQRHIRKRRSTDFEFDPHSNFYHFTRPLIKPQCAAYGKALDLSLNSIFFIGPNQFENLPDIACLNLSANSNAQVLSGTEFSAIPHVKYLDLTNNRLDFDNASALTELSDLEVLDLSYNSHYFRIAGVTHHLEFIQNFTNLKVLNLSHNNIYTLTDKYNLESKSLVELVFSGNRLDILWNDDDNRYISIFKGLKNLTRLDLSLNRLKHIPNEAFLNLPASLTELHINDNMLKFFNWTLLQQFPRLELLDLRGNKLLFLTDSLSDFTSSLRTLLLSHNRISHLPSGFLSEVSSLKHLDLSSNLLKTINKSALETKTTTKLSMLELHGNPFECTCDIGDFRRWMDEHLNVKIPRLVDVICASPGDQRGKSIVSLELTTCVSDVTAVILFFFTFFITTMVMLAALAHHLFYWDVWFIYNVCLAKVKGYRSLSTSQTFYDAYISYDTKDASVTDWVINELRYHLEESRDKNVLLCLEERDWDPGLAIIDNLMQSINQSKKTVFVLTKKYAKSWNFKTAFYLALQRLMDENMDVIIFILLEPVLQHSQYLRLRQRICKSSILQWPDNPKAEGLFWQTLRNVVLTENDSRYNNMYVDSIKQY
# Experimental: (§1) Effect Example 1: Activation Activity Test of hTLR7 and hTLR8
# (§2) Cell lines: HEK-Blue™ hTLR7 and HEK-Blue™ hTLR8 (InvivoGen Co.)
# (§3) Primary reagents: QUANTI-Blue™ (InvivoGen) and ATPlite 1 Step (PerkinElmer)
# (§4) Primary instruments: Automatic Liquid Handling Workstation (Labcyte, Model: Echo), Cell Counter (Countstar, IC1000) and Multifunctional Enzyme Marker (Molecular Device, Flexstation III).
# (§5) 2.1 The tested compounds were formulated into a 60 mM concentrated stock solution in DMSO and stored in a nitrogen cabinet.
# (§6) 2.3 The T150 cultured cells were taken out from the CO2 incubator and the cell culture supernatant was discarded. The cells were washed with PBS once, followed by addition of about 10 mL of the culture solution. The cells were dissociated by patting the cell culture flask, and gently blown to even by a pipette.
# (§7) The cells were counted, and the cell suspension was adjusted to 200,000 cells/mL by the culture solution. Thereafter, 200 μL of diluted cells was added to each well in a 96-well plate containing the compound (40,000 cells/well).
# (§8) 2.4 The compounds and cells were incubated in a 5% CO2 incubator at 37° C. for 24 hours.
# (§9) 2.5 Compound activity assay: 20 μl of the cell supernatant of each well after induction was added to a cell culture plate containing 180 μL of reagent QUANTI-Blue™, and incubated at 37° C. for 1.5 hours. Thereafter, the optical density absorption (OD650) of each well at 650 nm was measured using a Multifunctional Enzyme Marker: Flexstation III.
# (§10) 2.6 Compound Activity: OD650 values were analyzed using GraphPad Prism software and the dose-response curves for the compound were fitted to calculate the EC50 values of the compound.
# [2] = target: T2, hTLR7 (Homo sapiens, UniProt Q9NYK1); test: Activation activity test of hTLR7 (HEK-Blue hTLR7 cells, QUANTI-Blue OD650); type: cell-based; details: 24 hours incubation, read-out: TLR7 (EC50)
# T2 construct: host or cells: HEK-Blue hTLR7 (HEK293-derived reporter line)
# T2 sequence (Q9NYK1 27-1049): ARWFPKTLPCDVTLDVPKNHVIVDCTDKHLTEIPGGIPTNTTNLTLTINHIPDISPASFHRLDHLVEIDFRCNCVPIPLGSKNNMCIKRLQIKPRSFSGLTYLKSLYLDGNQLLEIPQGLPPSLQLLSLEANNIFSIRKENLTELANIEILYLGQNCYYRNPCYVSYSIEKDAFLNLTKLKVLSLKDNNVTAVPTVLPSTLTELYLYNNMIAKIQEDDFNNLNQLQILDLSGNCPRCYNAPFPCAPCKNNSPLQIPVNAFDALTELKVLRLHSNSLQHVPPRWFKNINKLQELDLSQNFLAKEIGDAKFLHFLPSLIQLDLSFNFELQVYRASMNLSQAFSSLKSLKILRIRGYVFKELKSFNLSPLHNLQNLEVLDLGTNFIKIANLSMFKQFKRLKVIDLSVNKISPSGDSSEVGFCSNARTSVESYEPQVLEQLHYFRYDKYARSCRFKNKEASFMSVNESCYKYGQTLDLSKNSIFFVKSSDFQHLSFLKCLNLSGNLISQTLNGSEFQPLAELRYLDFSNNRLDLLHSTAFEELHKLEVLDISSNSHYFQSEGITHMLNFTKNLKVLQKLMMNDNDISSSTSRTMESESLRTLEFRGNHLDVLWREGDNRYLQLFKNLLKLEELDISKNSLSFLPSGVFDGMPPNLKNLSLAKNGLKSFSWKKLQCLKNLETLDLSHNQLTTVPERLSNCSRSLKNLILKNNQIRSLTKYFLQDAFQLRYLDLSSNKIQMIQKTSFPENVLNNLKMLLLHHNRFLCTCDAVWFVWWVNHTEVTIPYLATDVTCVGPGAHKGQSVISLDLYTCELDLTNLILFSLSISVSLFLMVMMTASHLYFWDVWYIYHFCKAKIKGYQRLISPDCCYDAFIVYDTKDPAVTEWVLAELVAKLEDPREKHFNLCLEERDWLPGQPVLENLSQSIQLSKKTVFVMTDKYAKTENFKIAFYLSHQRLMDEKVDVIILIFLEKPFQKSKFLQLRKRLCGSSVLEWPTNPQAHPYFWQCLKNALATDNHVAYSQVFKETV
# Experimental: as §1, §2, §3, §4, §5, §6, §7, §8, §9, §10
SMILES,EC50 [1],EC50 [2],"agonistic activity against TLR8 ([1]; in words, from Table 1)"
"COCCOc1ncc2[nH]c(=O)n(Cc3cccc(CN4CCN(C)CC4)c3)c2n1 [Example 25, 2-(2-methoxyethoxy)-9-(3-((4-methylpiperazin-1-yl)methyl)benzyl)-7,9-dihydro-8H-purin-8-one]",> 100 µM,10 to 100 µM,–
"CCCCS(=O)(=O)c1ncc2[nH]c(=O)n(Cc3cccc(CN4CCCC4)c3)c2n1 [Example 35, 2-butylsulfonyl-9-(3-(pyrrolidin-1-ylmethyl)benzyl)-7,9-dihydro-8H-purin-8-one]",> 100 µM,> 100 µM,–
"CCCCOc1ncc2[nH]c(=O)n(Cc3cccc(CN4CCCC4)c3)c2n1 [Example 27, 2-butoxy-9-(3-(pyrrolidin-1-ylmethyl)benzyl)-7,9-dihydro-8H-purin-8-one]",10 to 100 µM,> 100 µM,–
"COCCOc1ncc2[nH]c(=O)n(Cc3ccc(CN(C)C)cc3)c2n1 [Example 9, 9-(4-((dimethylamino)methyl)benzyl)-2-(2-methoxyethoxy)-7,9-dihydro-8H-purin-8-one]",> 100 µM,1 to 10 µM,–
"CCCCNc1ncc2[nH]c(=O)n(Cc3cccc(CN4CCCC4)c3)c2n1 [Example 31, 2-(butylamino)-9-(3-(pyrrolidin-1-ylmethyl)benzyl)-7,9-dihydro-8H-purin-8-one]",> 100 µM,> 100 µM,–
"COCCOc1ncc2[nH]c(=O)n(Cc3ccc(C(C)N4CCCC4)cc3)c2n1 (stereo not shown) [Example 14, 2-(2-methoxyethoxy)-9-(4-(1-(pyrrolidin-1-yl)ethyl)benzyl)-7,9-dihydro-8H-purin-8-one]",> 100 µM,0.001 to 1 µM,–
"CCOCc1nc2c(N)nc3ccccc3c2n1CC(C)(C)O [Example R848, reference compound]",–,–,strong agonistic activity
"COCCOc1ncc2c(n1)n(Cc1ccc(CN3CCCC3)cc1)c(=O)n2C [Example 56, 9-(4-(pyrrolidin-1-ylmethyl)benzyl)-7-methyl-2-(2-methoxyethoxy)-7,9-dihydro-8H-purin-8-one]",> 100 µM,> 100 µM,–
COCCOc1ncc2[nH]c(=O)n(C(C)c3ccc(CN4CCCC4)cc3)c2n1 (stereo not shown) [Example 36],> 100 µM,10 to 100 µM,–
"O=c1[nH]c2cnc(OCCC3CC3)nc2n1Cc1cccc(CN2CCCC2)c1 [Example 29, 2-(2-cyclopropylethoxy)-9-(3-(pyrrolidin-1-ylmethyl)benzyl)-7,9-dihydro-8H-purin-8-one]",> 100 µM,> 100 µM,–
"COCCOc1ncc2[nH]c(=O)n(Cc3ccc(CN4CCCC4)c(F)c3)c2n1 [Example 62, 2-(2-methoxyethoxy)-9-(3-fluoro-4-(pyrrolidin-1-ylmethyl)benzyl)-7,9-dihydro-8H-purin-8-one]",> 100 µM,1 to 10 µM,–
"COC(C)CCOc1ncc2[nH]c(=O)n(Cc3ccc(CN4CCCC4)cc3)c2n1 (stereo not shown) [Example 49, 9-(4-(pyrrolidin-1-ylmethyl)benzyl)-2-(3-methoxybutoxy)-7,9-dihydro-8H-purin-8-one]",> 100 µM,0.001 to 1 µM,–
"COCCOc1ncc2[nH]c(=O)n(Cc3cccc(CN4CC[C@@H](F)C4)c3)c2n1 [Example 22, (R)-9-(3-((3-fluoropyrrolidin-1-yl)methyl)benzyl)-2-(2-methoxyethoxy)-7,9-dihydro-8H-purin-8-one]",> 100 µM,10 to 100 µM,–
"COCCNc1ncc2[nH]c(=O)n(Cc3cccc(CN4CCCC4)c3)c2n1 [Example 32, 2-((2-methoxyethyl)amine)-9-(3-(pyrrolidin-1-ylmethyl)benzyl)-7,9-dihydro-8H-purin-8-one]",> 100 µM,> 100 µM,–
"COCCOc1ncc2[nH]c(=O)n(Cc3ccc(CN4CCCCC4)cc3)c2n1 [Example 3, 2-(2-methoxyethoxy)-9-(4-(piperidin-1-ylmethyl)benzyl)-7,9-dihydro-8H-purin-8-one]",> 100 µM,1 to 10 µM,–
"COCCOc1ncc2[nH]c(=O)n(Cc3ccc(CN4CC5CC(C5)C4)cc3)c2n1 [Example 52, 9-(4-((3-azabicyclo[3.1.1]heptan-3-yl)methyl)benzyl)-2-(2-methoxyethoxy)-7,9-dihydro-8H-purin-8-one]",> 100 µM,1 to 10 µM,–
"O=c1[nH]c2cnc(OCCOCC3CC3)nc2n1Cc1ccc(CN2CCCC2)cc1 [Example 65, 9-(4-(pyrrolidin-1-ylmethyl)benzyl)-2-(2-(cyclopropylmethoxy)ethoxy)-7,9-dihydro-8H-purin-8-one]",> 100 µM,1 to 10 µM,–
"CCCCSc1ncc2[nH]c(=O)n(Cc3cccc(CN4CCCC4)c3)c2n1 [Example 33, 2-butylthio-9-(3-(pyrrolidin-1-ylmethyl)benzyl)-7,9-dihydro-8H-purin-8-one]",> 100 µM,> 100 µM,–
"CCOCCOc1ncc2[nH]c(=O)n(Cc3ccc(CN4CCCC4)cc3)c2n1 [Example 37, 2-(2-ethoxyethoxy)-9-(4-(pyrrolidin-1-ylmethyl)benzyl)-7,9-dihydro-8H-purin-8-one]",> 100 µM,1 to 10 µM,–
"COCCOc1ncc2[nH]c(=O)n(Cc3ccc([C@H](C)N4CCCC4)cc3)c2n1 [Example 41, (S)-2-(2-methoxyethoxy)-9-(4-(1-(pyrrolidin-1-yl)ethyl)benzyl)-7,9-dihydro-8H-purin-8-one]",> 100 µM,0.001 to 1 µM,–
"CCCn1c(=O)n(Cc2ccc(CN3CCCC3)cc2)c2nc(OCCOC)ncc21 [Example 57, 9-(4-(pyrrolidin-1-ylmethyl)benzyl)-7-propyl-2-(2-methoxyethoxy)-7,9-dihydro-8H-purin-8-one]",> 100 µM,> 100 µM,–
"COCCOc1ncc2[nH]c(=O)n(Cc3ccc([C@@H](C)N4CCCC4)cc3)c2n1 [Example 42, (R)-2-(2-methoxyethoxy)-9-(4-(1-(pyrrolidin-1-yl)ethyl)benzyl)-7,9-dihydro-8H-purin-8-one]",> 100 µM,0.001 to 1 µM,–
